Consider two substances from patent US9956268B2, “Neuropeptide Y treatment of autoimmune disease” (priority 2012, dated 2018).

In series [1] the test system is innate immune cytokines IL-1β or TNF-α. As to conditions: oral, recent EAE experiments; cited from earlier work.
The subject of series [2] is MOG peptide 35-55 immunized B6 mice (experimental autoimmune encephalomyelitis). As to the kind of experiment: Active EAE, ingested neuropeptide Y, clinical score. It counts as in vivo. The conditions noted are these: vs placebo, p<0.001 ANOVA.
The subject of series [3] is spinal cords of MOG peptide 35-55 immunized B6 mice. As to the kind of experiment: Spinal cord histology, inflammatory foci, actively fed mice. It counts as in vivo. The conditions noted are these: thirty days following immunization, mock fed 11.6±0.5. Here is the method:
Following sacrifice, spinal cords were removed and immersion fixed in 10% neutral buffered formalin for a minimum of two weeks. After fixation, cords were sectioned in entirety in the horizontal plane at approximately 3 mm intervals and processed to paraffin. Paraffin blocks were sectioned at 6-8 microns, and step sections were stained with hematoxylin and eosin and examined by light microscopy. Cord sections were evaluated independently for foci of inflammation by a blinded observer (SAB), without knowledge of the treatment status of the mice prior to sacrifice. Spinal cord tissue was sampled in an identical fashion for each animal and numbers of inflammatory foci per high-powered field (HPF) (>20 perivascular lymphocytes) in the parenchyma were counted.

Series [4] relates to active MOG peptide 35-55 immunized recipient mice. The experiment in a line: Adoptive transfer of splenocytes from neuropeptide Y fed donors, clinical score of recipients. It counts as in vivo, B6 mice. The conditions noted are these: placebo donors maximum 2.3.
In series [5] the test system is spinal cords of recipient mice. As to the kind of experiment: Spinal cord histology, inflammatory foci, recipients of adoptively transferred cells. It counts as in vivo, B6 mice. As to conditions: thirteen days following adoptive transfer, placebo donors 7.48±0.28. On the procedure: Thirty days after inoculation and after peak score of clinical attack, all spleens from each treatment group were aseptically removed, single cell suspensions prepared, and red cell lysis performed by adding 2-3 ml sterile water to single cells for 5 seconds, and once the solution became transparent, adding AIM-V media to a 50 ml tube. Splenocytes from grouped saline (mock) fed, 1 μg or 10 μg neuropeptide Y fed mice were re-stimulated with MOG peptide 35-55 at a final concentration of 10 μg/ml for 48 hours in serum free medium (AIM-V medium, Gibco BRL, Grand Island, N.Y.) with 2×10^5 cells/[…] in triplicate in 96 well U-bottomed plates in a humidified 5% CO2/95% air incubator at 37° C. Following incubation, cells were collected, washed twice in PBS, and viability determined by standard Trypan blue exclusion. […] Following administration of neuropeptide Y or adoptive transfer, clinical outcome is measured by comparing the difference between group mean active treatment and placebo group scores from day 17-30 post immunization.
Following sacrifice, spinal cords were removed and immersion fixed in 10% neutral buffered formalin for a minimum of two weeks. […] Cord sections were evaluated independently for foci of inflammation by a blinded observer (SAB), without knowledge of the treatment status of the mice prior to sacrifice. […]

Series [6] deals with splenic lymphocytes stimulated with MOG peptide 35-55. The experiment in a line: Cytokine secretion, MOG re-stimulated splenic lymphocytes of fed mice. It counts as in vivo, B6 mice. On the procedure: (§1) Spleens and spinal cords (CNS) from each treatment group were aseptically removed and single cell suspensions prepared. In spinal cords, whole cords were passed through a cell strainer for CNS lymphocytes (B & D, Franklin Lakes, N.J.) and spun at 600 rpm several times to separate lymphocytes from CNS tissue. Splenocytes and cord lymphocytes from grouped saline fed or 10 mcg NPY fed mice were stimulated with 10 mcg MOG peptide 35-55×48 hours as previously described (5, 6). Murine cytokine responses were examined using a customized RayBio Mouse Cytokine Inflammatory Antibody Array including innate cytokine IL-1β and TNF-α, IL-17 (Teff), Th1-like (IL-2, IFN-γ), Th2-like cytokines (IL-4, IL-10, IL-13) and IL-12p70 using the RayBioantibody array Analysis tool application (RayBiotech, Inc, Norcross, Ga.). Results were grouped from mice fed saline or mice fed with NPY from grouped samples of two separate experiments (each sample performed in duplicate) and expressed as pg/ml±SEM (student t-test).

Series [7] concerns CNS lymphocytes stimulated with MOG peptide 35-55. The experiment in a line: Cytokine secretion, MOG re-stimulated CNS (spinal cord) lymphocytes of fed mice. It counts as in vivo, B6 mice. Here is the method: as §1
For series [8], the system named is splenocytes of recipients stimulated with MOG peptide 35-55. The experiment in a line: Cytokine secretion, splenic lymphocytes of recipients of donor cells. It counts as in vivo, B6 mice. Here is the method: (§2) Thirty days after inoculation and after peak score of clinical attack, all spleens from each treatment group were aseptically removed, single cell suspensions prepared, and red cell lysis performed by adding 2-3 ml sterile water to single cells for 5 seconds, and once the solution became transparent, adding AIM-V media to a 50 ml tube. Splenocytes from grouped saline (mock) fed, 1 μg or 10 μg neuropeptide Y fed mice were re-stimulated with MOG peptide 35-55 at a final concentration of 10 μg/ml for 48 hours in serum free medium (AIM-V medium, Gibco BRL, Grand Island, N.Y.) with 2×10^5 cells/[…] in triplicate in 96 well U-bottomed plates in a humidified 5% CO2/95% air incubator at 37° C. Following incubation, cells were collected, washed twice in PBS, and viability determined by standard Trypan blue exclusion. Viable concentrations were adjusted to 10^7 cells/0.5 ml Dulbecco's PBS immediately prior to i.p. injection into active MOG peptide 35-55 immunized recipient mice during ongoing disease (˜day 17 post immunization). Following administration of neuropeptide Y or adoptive transfer, clinical outcome is measured by comparing the difference between group mean active treatment and placebo group scores from day 17-30 post immunization.
as §1

For series [9], the system named is CNS lymphocytes of recipients stimulated with MOG peptide 35-55. As to the kind of experiment: Cytokine secretion, CNS lymphocytes of recipients of donor cells. It counts as in vivo, B6 mice. Here is the method: as §2, §1
For the next series, the system named is CD4+CD25+FoxP3+ Treg. As to the kind of experiment: Phenotypic analysis (FACS) of Treg frequency. It counts as in vivo, B6 mice. As to conditions: data not shown. Here is the method: CD25 and FOXP3 expression by CD3+CD4+ lymphocytes was analyzed using the Beckman Coulter 10-Color Gallios Flow Cytometer and mouse regulatory T Cell Staining Kit with PE Foxp3 FJK-16s, FITC CD4, APC CD25 (eBioscience, San Diego, Calif.) following the manufacturer's instructions.

A short description of series [10]: Toxicity on extended oral administration. It counts as in vivo. The conditions noted are these: orally administered to mice over an extended time period.
Series [11] relates to actively immunized recipients (ongoing disease). As to the kind of experiment: Adoptive transfer of in vitro neuropeptide Y treated MOG restimulated activated macrophages. It counts as in vivo. The conditions noted are these: preliminary experiments.
Series [12] concerns experimental autoimmune encephalomyelitis. As to conditions: parenteral, mice; cited from earlier work.
The mark [13] stands for this setting: both fed groups (1 & 10 mcg) vs mock fed.
[14] abbreviates: splenic lymphocytes of recipients of fed donor cells vs mock.
[15] abbreviates: CNS lymphocytes of recipients of fed donor cells vs mock.
Setting [16] is: CNS lymphocytes of recipients, 10 mcg fed group vs mock.

Regarding “Adrenocorticotropin hormone (SYSMEHFRWGKPVGKKRRPVKVYPNGAEDESAEAFPLEF; Corticotropin; UniProt P01189 138-176, looked up) [ACTH]”, the “reduction of innate immune cytokines IL-1β or TNF-α” value in [1] was “no reduction”.

Consider Neuropeptide Y, for which the group clinical score result in [2] (1 mcg fed (gavage) from day 17, days 17-30 post immunization) was “significant decreases in group clinical scores”; in series [2] (10 mcg fed (gavage) from day 17, days 17-30 post immunization) it was “significant decreases in group clinical scores”. Besides, the “mean group inflammatory score (inflammatory foci)” value is reported as 6.4±0.16 in series [3] (1 mcg fed group) and 5.55±0.28 in series [3] (10 mcg fed group). Moreover, the “group clinical score at day 30” value is on record as 1.4 in series [4] (recipients of donor splenocytes from 1 mcg fed mice) and 0.88 in [4] (recipients of donor splenocytes from 10 mcg fed mice). Further, the “mean group inflammatory score (CNS inflammatory foci)” value was found to be 4.87±0.22 in [5] (recipients of 1 mcg fed donors) and 5.91±0.22 in series [5] (recipients of 10 mcg fed donors). In [6] (10 mcg dosed vs mock fed), the IL-12p70 level result is “decreased”. Moreover, the TNF-α level entry in series [6] (10 mcg dosed vs mock fed) is on record as “decreased”; in series [7] (fed vs mock fed), “significant decreases”; in [8] (setting [14]), “significant decreases”; in series [9] (setting [16]), “significant decreases”. Moreover, the IFN-γ level result in [6] (setting [13]), in [7] (fed vs mock fed), in series [8] (setting [14]) and in series [9] (setting [16]) was “significant decreases” throughout. Also, the IL-1β level entry in series [6] (setting [13]), in series [7] (fed vs mock fed), in series [8] (setting [14]) and in [9] (setting [15]) was “significant decreases” throughout. For the same substance, the IL-2 level result is “significant decreases” in series [6] (setting [13]); “significant decreases” in [7] (fed vs mock fed); “significant decreases” in series [8] (splenic lymphocytes of recipients, 10 mcg fed donor cells vs mock); “significant decreases” in series [9] (setting [16]). For the same substance, the “MOG induced IL-4 production” value in [6] (dosed vs mock dosed) is listed as “increased”. The “MOG induced IL-10 production” value in series [6] (dosed vs mock dosed) was “increased”; in series [9] (CNS lymphocytes of recipients, 1 mcg fed group vs mock), “increased”. In addition, the “MOG induced IL-13 production” value is on record as “increased” in series [6] (dosed vs mock dosed); “increased” in series [7] (dosed vs mock dosed); “increased” in [8] (setting [14]); “increased” in series [9] (CNS lymphocytes of recipients, both dosed groups vs mock). Besides, the IL-12 level entry in series [7] (fed vs mock fed) is given as “significant decreases”; in [8] (setting [14]), “significant decreases”; in [9] (CNS lymphocytes of recipients of fed donor cells vs mock, p<0.03 (FIG. 8 legend)), “decreased”. For the same substance, the “IL-17 (Teff) level” value in series [7] (fed vs mock fed), in series [8] (setting [14]) and in [9] (setting [15]) was “significant decreases” in each case. The “CD4+CD25+FoxP3+ cell frequency” value in the series on CD4+CD25+FoxP3+ Treg (actively fed mice vs mock fed) and with CD4+CD25+FoxP3+ Treg (recipients of actively fed donor cells vs mock) was “no significant increase” throughout. Further, the toxicity result in series [10] is “no detectable toxicity”. For the same substance, the “ongoing disease after adoptive transfer” value in series [11] is listed as “robust inhibition”. The “induction of experimental autoimmune encephalomyelitis” value in series [12] is on record as “significantly inhibits”.
